Experimental data from US20220030913A1, “SUPPLEMENT FOR LIVESTOCK” (Hoxie Feedyard, LLC, priority 2020, published 2022).

How the values were obtained:
Eimeria spp. = assay: 60 Day feeding study, qualitative fecal flotation for Eimeria; format: in vivo; conditions: fecal samples at 50 d of feed, samples positive for at least 1+ Eimeria
Source text: At 60 days of feed, 2-200 head pens were systematically allocated to 4 pens of 100 head. Two pens of 200 head were sorted at the chute into 4-100 head pens at time of terminal implant. Each 200 head pen contributed 50 head to each of the 4 pens that would be eventually allocated to treatment. This was accomplished by systematic allocation of 5 head at a time to each of the trial pens. If 200 head counts were not exactly 100 head/pen, the final allocations were that the number of animals per treatment group were similar. […]
Freshly voided fecal samples (n=10 per pen) were collected at 50 d of feed for fecal flotation to determine the presence of Eimeria spss. […] Qualitative fecal flotation measurements were measured on a scale of 1+ to 5+ with 1+ having <10 oocysts per slide, 3+ samples having 50-100 oocysts per slide, and 5+ having >500 oocysts/slide. This technique is considered semi-quantitative, with 3+ samples equivalent to approximately 50 oocysts/gram. […]
Continuous variables were analyzed using PROC Glimmix (SAS 9.4, SAS Inst. Inc., Cary, N.C.). […] Statistical significance was determined at P<0.05 with tendencies at 0.06>P<0.10. […]

liver abscesses = assay: 60 Day feeding study, liver abscess scores at slaughter; format: in vivo, cattle (crossbred steers); conditions: 60 day study
Source text: (§1) Feeding trials were completed with a randomized block design utilizing 4 treatments and 13 replicates per treatment. The first 20 pens (block 1, 5 replicates per treatment group) were placed first, the second 20 pens (block 2, 5 replicates per treatment group) were placed […], and the last 12 pens (block 3, 3 replicates per treatment group) were placed last. All cattle were housed within one area of the feedyard.
(§2) Crossbred steers (n=4,849) with an average weight of 590 kg+/−19.7 kg of various origins from the High Plains and Midwest were selected from within a northwest Kansas commercial feedyard. All cattle underwent the same receiving protocol and were placed in 200 head pens. All cattle were acclimated to feedlot rations and had been on feed a minimum of 60 days prior to trial enrollment. Starting rations during the initial 60 days included 75 mg/head/day tylosin (Tylan, Elanco Animal Health, Greenfield, Ind.) with 15 g/ton monensin (Rumensin, Elanco Animal Health, Greenfield, Ind.).
(§3) At 60 days of feed, 2-200 head pens were systematically allocated to 4 pens of 100 head. Two pens of 200 head were sorted at the chute into 4-100 head pens at time of terminal implant. Each 200 head pen contributed 50 head to each of the 4 pens that would be eventually allocated to treatment. This was accomplished by systematic allocation of 5 head at a time to each of the trial pens. If 200 head counts were not exactly 100 head/pen, the final allocations were that the number of animals per treatment group were similar. Once the 4-100 head pens (1 replicate) were sorted, the pens of cattle were weighed by pen, a 4% pencil shrink was applied, and pens were randomly assigned to 1 of 4 treatments: (1) Positive control (MT) 75 mg/head/day tylosin (Tylan,® Elanco Animal Health, Greenfield, Ind.) and 185 mg/head/day monensin (Rumensin,® Elanco Animal Health, Greenfield, Ind.); (2) Negative control (NO MT) fed without Rumensin® or Tylan®; (3) Decoquinate (DECO) fed 275 to 325 mg/head/day (Deccox,® Zoetis, Parsippany, N.J.); or (4) 3 g/head/day Yucca schidigera (YS) (Micro-Aid,® DPI Global, Porterville, Calif.). All cattle received an identification tag specific to the trial. Caretakers and processing staff were blinded to treatment.
(§4) At 60±4 days of feed, all pens of cattle were shipped to the same abattoir. Hot carcass weight was collected from the plant via scale on carcass rail. Liver abscess scores were assessed by USDA trained professionals and data were collected by third party trained professionals using the liver scoring system previously described by Brown et al. (1975): 0=no abscesses, A−=2-4 abscesses under 1 inch in diameter, A=1-2 abscesses greater than 1 inch in diameter and A+=abscesses greater than 2 inches in diameter, ruptured abscess, or adhesions to body wall. Yield grade and quality grade data were collected from the abattoir by a third party.
(§5) Continuous variables were analyzed using PROC Glimmix (SAS 9.4, SAS Inst. Inc., Cary, N.C.). Models contained treatment as a fixed effect, block as a random effect, and pen as the experimental unit. Least squares means were compared using the PDIFF function of SAS and the Tukey-Kramer adjustment for multiple comparisons. Statistical significance was determined at P<0.05 with tendencies at 0.06>P<0.10. Liver abscess scores, yield grade, and incidence of Eimeria spss. were converted to pen level frequency percentages prior to analysis.

[1] = 60 Day feeding study, carcass characteristics; format: in vivo, cattle (crossbred steers); conditions: 60 day study
Source text: as §1, §2, §3, §4, §5

[2] = 60 Day feeding study, cattle performance; format: in vivo, cattle (crossbred steers)
Source text: as §1, §2, §3
All treatment groups received the same base ration (Table 1) that was balanced to provide 14% crude protein DM, […] NEg (Table 1). Rations were prepared using a stationary batcher box (Feeding Systems, Inc., Columbus, Nebr.) and loaded onto mixer/delivery trucks with box-mounted scale (Rotomix Manufacturing, Dodge City, Kans.). Treatment rations were delivered twice daily (0800 and 1300) on separate trucks to prevent cross contamination of treatment rations.
Data on cattle performance were derived from feedlot closeout reports after all pens of cattle were shipped to an abattoir. Daily dry matter intakes were recorded via bunk management personnel and entered into the computerized bunk management system. The average dry matter intake per pen over the 60-day period was retrieved from closeout data. Final body weight was calculated as (carcass weight/0.64). Average daily gain (ADG) was calculated on a pen basis using the equation ((Final body weight−Initial body weight)/days on feed). Feed conversion was calculated by dividing the […], then carcass adjusted G:F was calculated as the reciprocal of feed conversion.
as §5, with “analysis. […]” for “analysis.”

CCCCCCCCCCOc1cc2c(O)c(C(=O)OCC)cnc2cc1OCC [DECO, decoquinate]
Eimeria spp. incidence (Eimeria spp.): 5.0%
Total liver abscess (liver abscesses): 31.4^a, b %
incidence of liver abscesses compared with other groups (liver abscesses; pairwise comparisons of least squares means): higher than cattle in the MT group, but lower than cattle in the NO MT group
A liver abscesses (liver abscesses; A = 1-2 abscesses greater than 1 inch): 4.1%
A+ liver abscesses (liver abscesses; A+ = abscesses greater than 2 inches, ruptured abscess or adhesions): 19.68^a, b %
A− liver abscesses (liver abscesses; A− = 2-4 abscesses under 1 inch): 7.6%
Dressing yield [1]: 63.9^a, b %
HCW, rank among treatment groups [1]: intermediate
HCW ([1]; hot carcass weight): 435.8^a, b kg
Choice ([1]; quality grade): 83.5%
Prime ([1]; quality grade): 2.4%
Select ([1]; quality grade): 11.9%
Standard ([1]; quality grade): 2.1%
YG1 ([1]; yield grade 1, pen level frequency): 7.0^a, c %
YG2 ([1]; yield grade 2): 33.8%
YG3 ([1]; yield grade 3): 40.8%
YG4 ([1]; yield grade 4): 17.1%
YG5 ([1]; yield grade 5): 1.3%
final body weight, rank among treatment groups ([2]; 60 day study): intermediate
growth performance compared with MT group ([2]; 60 day study): more similar to cattle in the MT group
DMI ([2]; steers, average daily dry matter intake over 60-day period): 12.1^a, b kg
Carcass adjusted G:F ([2]; steers, last 60 days on feed): 0.120 kg/kg
Carcass adjusted ADG ([2]; steers, last 60 days on feed, pen basis): 1.47^a, b kg
Carcass adjusted final BW ([2]; steers, treatment in ration for last 60 days, final BW = carcass weight/0.64): 681.0^a, b kg
